Measurements reported in US20060172423A1, “New expression system from rhodococcus” (priority 2002, published 2006).
Like-named read-outs stand apart in the source and are kept apart here.

Tests used:
[1] = system: repressor-promoter system of the KstD gene; assay: steroid induction of KSTD activity in cell free extracts (DCPIP as electron acceptor, AD as substrate), SQ1; assay type: cell-based, Rhodococcus erythropolis SQ1
Description: 4-androstene-3,17-dione (AD) induction served as a positive control.
From induced cultures, cell free extracts were prepared as indicated above and tested for KSTD activity using DCPIP as an electron acceptor and AD as a substrate.
(§1) Further, it was investigated whether KSTD1 was constitutively expressed in R. erythropolis RG10. Cell free extracts were prepared from an AD-induced cell culture and from a non-induced cell culture. These extracts were tested for KSTD activity using DCPIP as an electron acceptor and AD as a substrate. For reasons of comparison, the same procedure was performed with R. erythropolis SQ1.

KSTD activity [2] = assay: KSTD activity in cell free extracts (DCPIP as electron acceptor, AD as substrate), RG10; assay type: cell-based, Rhodococcus erythropolis RG10; details: cell free extract of AD-induced culture
Description: as §1

KSTD activity [3] = details: gene disruption mutant SDH420; cited from earlier work

| Structure (SMILES) | lifting of kstD promoter repression exerted by the kstR gene product ([1]; addition of steroid compound) | further results |
| --- | --- | --- |
| C[C@]12CCC(=O)C=C1CC[C@@H]1[C@@H]2CC[C@]2(C)C(=O)CC[C@@H]12 [AD, 4-androstene-3,17-dione] | able to lift kstD promotor repression | induction of KSTD activity in R. erythropolis SQ1 ([1]; cell free extracts of induced cultures, DCPIP electron acceptor, AD substrate): detected; KSTD activity in R. erythropolis RG10 (KSTD activity [2]): present; induction of wild-type KSTD activity in R. erythropolis SDH420 (KSTD activity [3]): can be induced |
| CC(=O)[C@H]1CC[C@H]2[C@@H]3CCC4=CC(=O)CC[C@]4(C)[C@H]3CC[C@]12C [progesterone] | able to lift kstD promotor repression |  |
| C[C@]12CC[C@H]3[C@@H](CCC4=CC(=O)CC[C@@]43C)[C@@H]1CC[C@@H]2O [testosterone] |  | lifting of kstD promoter repression exerted by the kstR gene product [1]: able to lift kstD promotor repression |
| C[C@]12C=CC(=O)C=C1CC[C@@H]1[C@@H]2CC[C@]2(C)C(=O)CC[C@@H]12 [ADD, 1,4-androstadiene-3,17-dione] | able to lift kstD promotor repression |  |
| C[C@]12CC[C@H]3C(=CCC4=CC(=O)CC[C@@]43CO)[C@@H]1CCC2=O [19-OH-7-dehydro-androstene-3,17-dione] | able to lift kstD promotor repression |  |
| CC(=O)[C@H]1CC[C@H]2[C@@H]3CC=C4C[C@@H](O)CC[C@]4(C)[C@H]3CC[C@]12C [pregnenolone] | able to lift kstD promotor repression |  |
| C[C@@H]1CC2=CC(=O)CC[C@@H]2[C@H]2CC[C@]3(C)C(=O)CC[C@H]3[C@@H]21 [7α-methyl-nordione] | able to lift kstD promotor repression |  |
| C[C@]12CCC(=O)C=C1CC[C@H]1[C@@H]3CCC(=O)[C@@]3(C)CC[C@@]12O [9OHAD, 9α-hydroxy-4-androstene-3,17-dione] |  | lifting of kstD promoter repression exerted by the kstR gene product [1]: able to lift kstD promotor repression |
| C[C@]12CC[C@H]3[C@@H](CCC4=CC(=O)CC[C@@H]43)[C@@H]1CCC2=O [estr-4-ene-3,17-dione] | able to lift kstD promotor repression |  |
| C=C1C[C@]2(C)C(=O)CC[C@H]2[C@@H]2CCC3=CC(=O)CC[C@@H]3[C@@H]12 [11-methylene-nordione] | able to lift kstD promotor repression |  |
| C[C@]12CCC(=O)C[C@@H]1CC[C@@H]1[C@@H]2CC[C@]2(C)[C@@H](O)CC[C@@H]12 [stanolone, 17β-OH-5α-androstane-3-on] |  | lifting of kstD promoter repression exerted by the kstR gene product [1]: able to lift kstD promotor repression |
